The record followed here is patent publication US8822517B2, “Arylosulfonamides for the treatment of CNS diseases” (Adamed SP. Z O.O., priority 2010, dated 2014).

Experiment [1] has as its target T1, dopaminergic D2 receptor (Homo sapiens, UniProt P14416). The experiment in a line: Binding assay D2S (h), [3H]methyl-spiperone, HEK-293 cells. Particulars: read-out: D2 [%]. On the set-up: expressed in transfected cells; host or cells: HEK-293 cells. The method in brief:
(§1)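 Tested at 1×10^−6 M. Specific binding: total minus binding remaining with excess cold ligand. Detection: scintillation counting.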
Target sequence in this assay (P14416 1-414 isoform P14416-2): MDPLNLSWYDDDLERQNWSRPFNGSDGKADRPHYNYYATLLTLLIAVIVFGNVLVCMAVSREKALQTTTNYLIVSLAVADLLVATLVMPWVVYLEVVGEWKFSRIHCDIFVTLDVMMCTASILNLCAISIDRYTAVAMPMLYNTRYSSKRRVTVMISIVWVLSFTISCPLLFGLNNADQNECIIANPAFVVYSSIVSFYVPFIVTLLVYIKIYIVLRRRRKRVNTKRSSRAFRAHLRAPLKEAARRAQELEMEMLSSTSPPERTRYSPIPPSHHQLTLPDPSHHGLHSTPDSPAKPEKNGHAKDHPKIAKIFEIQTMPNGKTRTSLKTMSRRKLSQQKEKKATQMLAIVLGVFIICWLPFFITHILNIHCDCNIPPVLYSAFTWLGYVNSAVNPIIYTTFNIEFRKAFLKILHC

The next experiment deals with T2, muscarinic M3 receptor (Homo sapiens, UniProt P20309).
T2 construct: expressed in transfected cells; host or cells: CHO cells
The experiment can be described thus: Binding assay M3 (h), [3H]4-DAMP, CHO cells. Particulars: read-out: M3 [%]. The method in brief: as §1

Experiment [2] addresses serotoninergic 5-HT7 receptor (Homo sapiens, UniProt P34969). The experiment in a line: Cellular functional assay, serotoninergic 5-HT7 receptor (agonism/antagonism). The format is cell-based. Particulars: for activation at 1 µM: agonist effect, percent of control specific agonist response, compounds tested at 1×10^−6M, read-out: 5-HT7-ag [%]; for inhibition at 1 µM: read-out: 5-HT7-antag. [%]. The protocol:
(§2) The compounds were tested at the concentration of 1×10^−6M.
(§3) In the Tables ag refers to agonism, and antag to antagonism).

Experiment [3] deals with T3, serotoninergic 5-HT1A receptor (Homo sapiens, UniProt P08908).
T3 sequence (P08908 1-422): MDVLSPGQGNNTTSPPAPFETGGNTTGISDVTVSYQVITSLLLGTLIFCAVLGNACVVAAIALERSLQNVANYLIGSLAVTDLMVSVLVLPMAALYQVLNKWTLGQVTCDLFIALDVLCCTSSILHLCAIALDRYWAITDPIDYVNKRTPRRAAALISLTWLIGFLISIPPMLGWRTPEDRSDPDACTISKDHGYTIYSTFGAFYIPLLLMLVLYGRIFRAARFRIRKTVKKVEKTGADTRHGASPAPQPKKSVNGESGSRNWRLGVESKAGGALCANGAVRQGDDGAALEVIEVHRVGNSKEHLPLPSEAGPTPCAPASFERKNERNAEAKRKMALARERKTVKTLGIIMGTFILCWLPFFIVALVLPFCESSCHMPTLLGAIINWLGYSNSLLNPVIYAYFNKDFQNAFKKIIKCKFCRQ
The experiment can be described thus: Binding assay 5-HT1A (h), [3H]8-OH-DPAT, HEK-293 cells. Particulars: read-out: 5-HT1A. On the set-up: expressed in transfected cells; host or cells: HEK-293 cells. The method in brief:
as §1

The target of experiment [4] is T4, adrenergic α2C receptor (Homo sapiens, UniProt P18825).
T4 sequence (P18825 1-462): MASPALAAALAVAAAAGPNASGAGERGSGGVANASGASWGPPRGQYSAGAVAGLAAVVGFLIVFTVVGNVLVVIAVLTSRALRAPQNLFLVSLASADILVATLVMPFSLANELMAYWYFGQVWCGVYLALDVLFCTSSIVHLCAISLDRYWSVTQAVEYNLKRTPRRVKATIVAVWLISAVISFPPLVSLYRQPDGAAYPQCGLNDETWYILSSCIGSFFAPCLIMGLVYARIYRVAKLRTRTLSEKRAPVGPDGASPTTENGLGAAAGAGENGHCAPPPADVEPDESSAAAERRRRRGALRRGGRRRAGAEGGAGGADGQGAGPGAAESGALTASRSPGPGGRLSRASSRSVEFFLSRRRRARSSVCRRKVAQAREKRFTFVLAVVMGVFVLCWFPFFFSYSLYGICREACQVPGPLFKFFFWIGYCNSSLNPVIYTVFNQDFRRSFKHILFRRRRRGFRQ
The experiment in a line: Cellular functional assay, adrenergic α2C receptor (agonism/antagonism). Type of experiment: cell-based. Particulars: for activation at 1 µM: agonist effect, percent of control specific agonist response, compounds tested at 1×10^−6M, read-out: α2C −ag [%]; for inhibition at 1 µM: read-out: α2C −antag. [%]. The protocol: as §2, §3

The target of experiment [5] is T1, dopaminergic D2 receptor. The experiment can be described thus: Cellular functional assay, dopaminergic D2 receptor (agonism/antagonism). The format is cell-based. Particulars: HEK293; for activation at 1 µM: agonist effect, percent of control specific agonist response (3 μM dopamine for control), 1×10^−6 M, D2S (h), HEK-293 cells, read-out: D2-ag [%]; for inhibition at 1 µM: read-out: D2-antag. [%]. The protocol:
as §2, §3
Target sequence in this assay (P14416 whole entry): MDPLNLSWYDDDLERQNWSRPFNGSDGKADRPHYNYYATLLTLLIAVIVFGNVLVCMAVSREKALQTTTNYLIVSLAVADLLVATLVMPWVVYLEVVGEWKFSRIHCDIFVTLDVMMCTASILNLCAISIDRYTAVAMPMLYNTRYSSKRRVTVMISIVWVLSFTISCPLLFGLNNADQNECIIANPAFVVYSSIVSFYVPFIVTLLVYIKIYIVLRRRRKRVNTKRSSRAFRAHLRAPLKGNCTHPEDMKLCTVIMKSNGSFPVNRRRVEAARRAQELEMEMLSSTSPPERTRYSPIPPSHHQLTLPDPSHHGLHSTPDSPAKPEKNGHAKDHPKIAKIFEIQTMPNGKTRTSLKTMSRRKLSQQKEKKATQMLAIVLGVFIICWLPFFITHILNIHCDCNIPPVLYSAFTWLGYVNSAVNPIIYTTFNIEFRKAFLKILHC

In a further experiment the target is T5, adrenergic α1A receptor (Homo sapiens, UniProt P35348).
T5 sequence (P35348 1-466): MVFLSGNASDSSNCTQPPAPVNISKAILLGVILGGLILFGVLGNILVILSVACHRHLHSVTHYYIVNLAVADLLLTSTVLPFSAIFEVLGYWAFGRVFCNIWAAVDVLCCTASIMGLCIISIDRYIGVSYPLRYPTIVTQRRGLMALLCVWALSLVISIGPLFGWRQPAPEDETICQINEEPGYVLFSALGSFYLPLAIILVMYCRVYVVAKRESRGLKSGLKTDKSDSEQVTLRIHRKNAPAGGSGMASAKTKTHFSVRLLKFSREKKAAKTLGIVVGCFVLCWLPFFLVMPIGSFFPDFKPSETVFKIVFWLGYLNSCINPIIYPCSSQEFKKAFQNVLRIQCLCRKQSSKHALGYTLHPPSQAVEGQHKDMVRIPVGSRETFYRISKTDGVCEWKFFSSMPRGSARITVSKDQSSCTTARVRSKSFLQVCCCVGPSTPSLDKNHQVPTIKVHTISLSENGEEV
The experiment in a line: Cellular functional assay, adrenergic α1A receptor (agonism/antagonism). To be noted: for activation at 1 µM: agonist effect, percent of control specific agonist response, compounds tested at 1×10^−6M, read-out: α1A -ag [%]; for inhibition at 1 µM: read-out: α1A -antag. [%]. The format is cell-based. The method in brief:
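Human receptors tested in cell-based functional format for both agonist and antagonist modes. Single compound concentration of 1×10^−6M.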

Experiment [6] deals with histaminergic H1 receptor (Homo sapiens, UniProt P35367). The experiment can be described thus: Binding assay H1 (h), [3H]pyrilamine, HEK-293 cells. To be noted: read-out: H1 [%]. On the set-up: expressed in transfected cells; host or cells: HEK-293 cells. The essentials: as §1
Experiment [7] addresses T4, adrenergic α2C receptor. The experiment in a line: Binding assay α2C (h), [3H]RX 821002, CHO cells. Set-up: expressed in transfected cells; host or cells: CHO cells. To be noted: read-out: α2C [%]. The essentials:
as §1

The next experiment deals with sigma σ receptor. The experiment in a line: Binding assay σ (non-selective), [3H]DTG, rat cerebral cortex. Particulars: percent inhibition of control specific binding; compounds tested at 1×10^−6 M. The essentials: as §1

T2 sequence (P20309 whole entry): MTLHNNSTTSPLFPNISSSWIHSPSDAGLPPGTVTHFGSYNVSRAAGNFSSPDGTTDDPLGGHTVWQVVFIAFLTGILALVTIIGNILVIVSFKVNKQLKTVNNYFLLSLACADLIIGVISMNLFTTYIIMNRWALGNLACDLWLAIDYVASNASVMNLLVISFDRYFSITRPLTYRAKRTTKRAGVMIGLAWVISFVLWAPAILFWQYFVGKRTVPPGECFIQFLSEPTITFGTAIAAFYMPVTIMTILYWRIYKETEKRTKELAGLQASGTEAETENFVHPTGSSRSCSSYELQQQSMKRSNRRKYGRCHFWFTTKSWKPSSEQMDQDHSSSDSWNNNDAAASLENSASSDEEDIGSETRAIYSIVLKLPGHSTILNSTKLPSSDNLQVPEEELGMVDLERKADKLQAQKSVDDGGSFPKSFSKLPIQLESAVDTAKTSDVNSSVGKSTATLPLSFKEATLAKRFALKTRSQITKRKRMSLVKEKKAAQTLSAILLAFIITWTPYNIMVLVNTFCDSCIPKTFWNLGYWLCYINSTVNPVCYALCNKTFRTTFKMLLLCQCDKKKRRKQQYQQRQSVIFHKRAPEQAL
Chain of histaminergic H1 receptor (P35367 whole entry): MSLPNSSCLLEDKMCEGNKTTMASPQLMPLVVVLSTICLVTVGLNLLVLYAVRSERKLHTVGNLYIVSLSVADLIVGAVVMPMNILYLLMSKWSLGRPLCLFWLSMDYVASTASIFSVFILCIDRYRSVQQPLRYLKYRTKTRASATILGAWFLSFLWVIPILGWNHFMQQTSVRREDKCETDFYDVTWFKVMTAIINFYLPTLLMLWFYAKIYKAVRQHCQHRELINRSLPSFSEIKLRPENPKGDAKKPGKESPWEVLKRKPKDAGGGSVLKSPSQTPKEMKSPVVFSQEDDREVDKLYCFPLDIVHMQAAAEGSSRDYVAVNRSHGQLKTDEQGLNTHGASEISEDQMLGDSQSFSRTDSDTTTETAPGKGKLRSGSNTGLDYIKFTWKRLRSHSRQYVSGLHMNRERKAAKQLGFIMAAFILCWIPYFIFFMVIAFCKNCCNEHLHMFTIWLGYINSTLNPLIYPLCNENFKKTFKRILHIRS
Chain of serotoninergic 5-HT7 receptor (P34969 whole entry): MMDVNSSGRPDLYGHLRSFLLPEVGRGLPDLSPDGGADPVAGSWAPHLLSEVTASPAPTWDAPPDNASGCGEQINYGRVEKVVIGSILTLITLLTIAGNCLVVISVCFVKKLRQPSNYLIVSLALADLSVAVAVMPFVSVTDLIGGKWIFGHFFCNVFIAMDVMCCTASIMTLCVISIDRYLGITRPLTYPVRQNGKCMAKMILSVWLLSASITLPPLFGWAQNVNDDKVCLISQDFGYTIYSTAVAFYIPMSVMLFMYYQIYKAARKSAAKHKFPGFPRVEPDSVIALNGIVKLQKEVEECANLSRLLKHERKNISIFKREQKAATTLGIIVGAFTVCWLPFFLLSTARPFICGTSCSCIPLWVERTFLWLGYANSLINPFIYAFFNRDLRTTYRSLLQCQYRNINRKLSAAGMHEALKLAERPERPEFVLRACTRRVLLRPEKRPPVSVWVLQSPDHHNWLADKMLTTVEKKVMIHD

On to `O=S(=O)(NCCCN1CCC(c2noc3cc(F)ccc23)CC1)c1ccc2cn[nH]c2c1` [Compound 352, N-[3-[4-(6-Fluoro-1,2-benzoxazol-3-yl)piperidin-1-yl]propyl]-1H-indazole-6-sulphonamide], for which the inhibition at 1 µM worked out at 100% on dopaminergic D2 receptor [1]; 12% at muscarinic M3 receptor; 102% in experiment [2]; 89% in experiment [3]; 16% at adrenergic α2C receptor [4]; 88% at dopaminergic D2 receptor [5]. The inhibition at 1 µM at adrenergic α1A receptor amounted to 100%; in [6], 97%; on adrenergic α2C receptor [7], 100%. Further, the activation at 1 µM in experiment [2] was -2%; at adrenergic α2C receptor [4] it was -16%; at dopaminergic D2 receptor [5], 12%; on adrenergic α1A receptor, 1%. The “σ [%]” value with sigma σ receptor is reported as 76%.

As to `O=S(=O)(NCCCCN1CCN(c2cccc3[nH]ccc23)CC1)c1ccc(F)cc1` [Compound 359, 4-Fluoro-N-[4-[4-(1H-indol-4-yl)piperazin-1-yl]butyl]benzenesulphonamide], the inhibition at 1 µM at dopaminergic D2 receptor [1] was determined as 96%; on muscarinic M3 receptor, 63%; in [2] it was 43%; in experiment [3], 100%; at adrenergic α2C receptor [4], 38%; on dopaminergic D2 receptor [5] it was 96%. Further, the figures for the inhibition at 1 µM (at adrenergic α1A receptor; in experiment [6]; at adrenergic α2C receptor [7]) were 100%, 60% and 99%, respectively. For the same compound, the activation at 1 µM in [2] stood at 8%; at adrenergic α2C receptor [4] it was 13%; on dopaminergic D2 receptor [5], 39%; on adrenergic α1A receptor, 1%. Also, the “σ [%]” value in the experiment with sigma σ receptor turned out to be 85%.

For the compound `O=S(=O)(NCCCCN1CCN(c2cccc3[nH]ccc23)CC1)c1cc2ccc(Cl)cc2s1` [Compound 363, 6-Chloro-N-[4-[4-(1H-indol-4-yl)piperazin-1-yl]butyl]benzothiophene-2-sulphonamide], the inhibition at 1 µM was 99% at dopaminergic D2 receptor [1]; 15% at muscarinic M3 receptor; 24% in experiment [2]; 101% in experiment [3]; 42% at adrenergic α2C receptor [4]; 94% on dopaminergic D2 receptor [5]. Moreover, the inhibition at 1 µM at adrenergic α1A receptor was 100%; in [6] it was 70%; at adrenergic α2C receptor [7] it was 101%. Moreover, the activation at 1 µM in experiment [2] was 6%; on adrenergic α2C receptor [4], 17%; at dopaminergic D2 receptor [5], 50%; at adrenergic α1A receptor it was 0%. Also, the “σ [%]” value with sigma σ receptor is reported as 96%.
